# Reference: patent US12303484B2, “Method of treating cancer” (University of Louisiana at Lafayette, priority 2019, dated 2025)
# Read-outs that look alike come from different tables or passages of the source.
# Legend:
# [1] = tested on: NCI-H23 Lung Cancer cell line; test: MTT cell proliferation / cytotoxicity assay, NCI-H23; assay type: cell-based, human; conditions: for ED50 (in words): NCI-H23, MTT assay; for EC50: MTT, read-out: Effective Dose 50 (ED50)
# Protocol: (§1) Examples measuring the effectiveness of mer-[RuCl3(DMSO)(dmpyz)2 in treating two lines of cancer cells is presented herein. Lung Cancer Cell lines NCI-H522 and NCI-H23 from ATCC were grown in RPMI (growth medium) supplemented with 10% heat inactivated fetal bovine serum (FBS) along with penicillin and streptomycin. All cells were grown at humidified, carbon dioxide enriched atmosphere (+37° C. with 5% CO2).
# (§2) NCI-H522 cells were seeded at 50,000 cells/well and NCI-H23 at 30,000cells/well in a 96-well microtiter plate in RPMI with 10% FBS. Cells were incubated at humidified atmosphere (+37° C. with 5% CO2) for overnight attachment. A mer-[RuCl3(DMSO)(dmpyz)2 drug along with the positive control drug Doxorubicin were used in following concentrations (100 μM, 33 μM, 11 μM, 3.7 μM, 1.2 μM, 0.4 μM per well of cells) and added in triplicates and incubated for 3 time durations (24 hrs,48 hrs,72 hrs) at humidified atmosphere (37° C. with 5% CO2). Thereafter the cells were treated with 10 μl (final concentration 0.5 mg/ml) 3-(4,5-dimethylthiazol-2-yl)- 2,5-diphenyltetrazolium bromide (MTT, see Cell Proliferation Kit I MTT Roche: Cat No: 11465007001). The microplate were incubated for 4 hours in a humidified atmosphere (+37° C., 5% CO2). Four hours later 100 μl of solubilization solution (from Roche MTT kit) was added into each well. The plate were allowed to stand overnight in the incubator in a humidified atmosphere (+37° C., 5% CO2). The complete solubilization of the purple formazan crystals was check for and measure the absorbance of the samples using a microplate (ELISA) reader. The wavelength was measure for absorbance of the formazan product at 562 nm the reference wavelength used was 630 nm. Percentage viable cells were calculated as below. % viable cells=(ab of sample-ab of blank/ab control-ab blank) X100 % cytotoxicity or % inhibition=100−% viable cells
# (§3) The Effective Dose 50 (ED50) was extrapolated from the dose-response graph. The drug concentration that reduced the viability of the cells by 50% (ED50) was determined by plotting data points over a concentration range and calculating values using PRISM program.
# (§4) The MTT assay is used to measure cellular metabolic activity as an indicator of cell viability, proliferation and cytotoxicity. This colorimetric assay is based on the reduction of a yellow tetrazolium salt (3-(4,5-dimethylthiazol-2-yl)-2,5-diphenyltetrazolium bromide or MTT) to purple formazan crystals by metabolically active cells. Viable cells produce enzymes that convert yellow MTT to insoluble purple formazan. The more viable cells present in a sample, the more intense the purple color. This test is widely used in the in vitro evaluation of cytotoxic potency of drugs. In the present study we applied the MTT assay to evaluate the potency of mer-[RuC3(DMSO)(dmpyz)2 anti-cancer drug in various human lung cancer cell lines.
# [2] = tested on: NCI-H522 Lung Cancer cell line; test: MTT cell proliferation / cytotoxicity assay, NCI-H522; assay type: cell-based, human; conditions: for ED50 (in words): NCI-H522, MTT assay; for EC50: MTT, read-out: Effective Dose 50 (ED50)
# Protocol: as §1, §2, §3, §4
# H522 cell lines (NSCLC) = test: Ruthenium complex screening against cancer subtypes (FIG. 3); assay type: cell-based
# Excerpt: Still, preliminary tests show promise that dosage of RuCl3(DMSO)(dmPyz)2 is effective against NSCLC subtypes. FIG. 3 is a table showing the results of Ruthenium complex screening conducted to test the efficacy of the current Ruthenium (III) complexes to various cancer subtypes.
Compound,ED50 (in words) [1],ED50 (in words) [2],IC50 (H522 cell lines (NSCLC); suggested from 97% inhibition at 10 micromole) [µM],"inhibition of NSCLC (H522 cell lines (NSCLC); treatment of 10 micromole (M) purified, preliminary tests) [%]","cytotoxic response ([1]; H23 cell lines, 100 μM concentration)","EC50 ([1]; NCI-H23, 24 hrs treatment) [µM]","EC50 ([1]; NCI-H23, 48 hrs treatment) [µM]","EC50 ([1]; NCI-H23, 72 hrs treatment) [µM]","cell viability ([1]; NCI-H23, drug concentration 100 μM)","cytotoxic response ([2]; H522 cell lines, 33 μM concentration)","EC50 ([2]; NCI-H522, 24 hrs treatment) [µM]","EC50 ([2]; NCI-H522, 48 hrs treatment) [µM]","EC50 ([2]; NCI-H522, 72 hrs treatment) [µM]","cell viability ([2]; NCI-H522, drug concentration 33 μM or more)"
"COc1cccc2c1C(=O)c1c(O)c3c(c(O)c1C2=O)C[C@@](O)(C(=O)CO)C[C@@H]3O[C@H]1C[C@H](N)[C@H](O)[C@H](C)O1 [doxorubicin, Doxorubicin, reference compound]",comparable to published data,comparable to published data,–,–,–,–,–,–,–,–,–,–,–,–
mer-[RuCl3(DMSO)(dmpyz)2,modest micromolar,modest micromolar,< 10,97,highly toxic,81.1,77.4,59.4,reduces to zero,highly toxic,82.1,11.7,12.5,reduces to zero
